The source of these data is patent US20220332764A1, “T CELL EPITOPES OF HCMV AND USES OF THEREOF” (EBERHARD KARLS UNIVERSITÄT TÜBINGEN, priority 2019, published 2022).

Several values for one entry are separate records, joined by “and”; a condition that tells them apart may be missing. Equal values may be shown once. Read-outs that look alike come from different tables or passages of the source.

In experiment [1] the test system is CD8+ / CD4+ T cells of donor PBMCs. The experiment in a line: Intracellular cytokine staining (ICS; IFNγ, TNFα, CD107a). The class given is cell-based, human. The conditions noted are these: for Intracellular staining: responding T-cell subset; for Intracellular cytokine staining: responding T-cell subset after peptide stimulation. The source says:
PHA was used as positive control. […] (Cytofix/Cytoperm, BD Biosciences).

For experiment [2], the system named is CD8+ T cells of HLA-matched healthy donors. Particulars: for Tetramer-staining: after 12 day amplification.
For experiment [3], the system named is PBMCs of healthy HCMV-seropositive donors. In words: IFNγ ELISpot after 12 day stimulation (memory T-cell response). The class given is cell-based, human. Particulars: for % Positive donors (after 12 days of stimulation): IFNγ ELISpot, HLA-matched seropositive donors; for ELISpot response rate (12 d stim.): 12-day amplification with IL-2 in vitro; for Positive donors as tested: positive / tested HLA-matched seropositive donors, positive: >10 spots/well and at least 3-fold negative control. The source says:
(§1) PHA was used as positive control.

Experiment [4] shares this test system. In words: ex vivo IFNγ ELISpot without prestimulation. The experiment is classed as cell-based, human. Particulars: for % Positive donors (ex vivo): IFNγ ELISpot ex vivo, donors previously tested positive; for ELISpot response rate (ex vivo): donors positively tested in ELISpots with 12d stimulation.
From the text: as §1

In the case of “ALWDVALLEV (listed as Human cytomegalovirus) [SEQ ID NO: 2]”, the Intracellular staining entry in experiment [1] (Tested HLA A*02:01) is on record as “CD8”. The Intracellular cytokine staining result in experiment [1] is on record as “CD8”. Also, in experiment [2] (Tested HLA A*02:01), the Tetramer staining result was “positive”. Moreover, in experiment [2], the Tetramer-staining result is “Positive”. Further, in experiment [3], the “% Positive donors (after 12 days of stimulation)” value was determined as 71.4% and the “Positive donors as tested” value is listed as 10/14. For the same sequence, the “ELISpot response rate (12 d stim.)” value in experiment [3] (Tested HLA A*02:01) came out at 71.4. In experiment [4], the “% Positive donors (ex vivo)” value amounted to 25.0%. Besides, the “ELISpot response rate (ex vivo)” value in experiment [4] (Tested HLA A*02:01) turned out to be 25.0.

Regarding “DARSRIHNV (listed as Human cytomegalovirus) [SEQ ID NO: 89]”, in experiment [1] (Tested HLA B*51:01), the Intracellular staining result is given as “CD8”. Also, the Intracellular cytokine staining entry in experiment [1] is listed as “CD8”. Besides, the Tetramer staining entry in experiment [2] (Tested HLA B*51:01) is given as “positive”. In addition, in experiment [2], the Tetramer-staining entry is on record as “Positive”. For the same sequence, in experiment [3], the “% Positive donors (after 12 days of stimulation)” value is 53.3% and the “Positive donors as tested” value is 8/15. In addition, the “ELISpot response rate (12 d stim.)” value in experiment [3] (Tested HLA B*51:01) was found to be 53.3. In addition, the “ELISpot response rate (ex vivo)” value in experiment [4] (Tested HLA B*51:01) turned out to be 20.0.

In the case of “DEQVSKRSW (listed as Human cytomegalovirus) [SEQ ID NO: 42]”, the Intracellular cytokine staining entry in experiment [1] was “CD8”. For the same sequence, the Tetramer-staining entry in experiment [2] is listed as “Positive”. In addition, in experiment [3], the “% Positive donors (after 12 days of stimulation)” value is recorded as 45.8% and the “Positive donors as tested” value was 11/24. Also, the “% Positive donors (ex vivo)” value in experiment [4] came to 12.5%.

For “FLDENFKQL (listed as Human cytomegalovirus) [SEQ ID NO: 5]”, the Intracellular cytokine staining result in experiment [1] is “CD4”. The Tetramer-staining entry in experiment [2] was “Negative”. In addition, in experiment [3], the “% Positive donors (after 12 days of stimulation)” value was determined as 47.6% and the “Positive donors as tested” value is recorded as 10/21. In experiment [4], the “% Positive donors (ex vivo)” value worked out at 37.5%.

With “GLLAHIPALGV (listed as Human cytomegalovirus) [SEQ ID NO: 8]”, in experiment [3], the “% Positive donors (after 12 days of stimulation)” value amounted to 27.3% and the “Positive donors as tested” value is recorded as 6/22. Also, in experiment [4], the “% Positive donors (ex vivo)” value turned out to be 0.0%.

With “KLGYRPHAK (listed as Human cytomegalovirus) [SEQ ID NO: 71]”, the Intracellular cytokine staining entry in experiment [1] is “CD8”. Further, in experiment [2], the Tetramer-staining entry is listed as “Positive”. In experiment [3], the “% Positive donors (after 12 days of stimulation)” value is on record as 37.9% and the “Positive donors as tested” value is on record as 11/29.

Consider “MPVTHPPEV (listed as Human cytomegalovirus) [SEQ ID NO: 95]”, for which, in experiment [3], the “% Positive donors (after 12 days of stimulation)” value was 13.3% and the “Positive donors as tested” value is 2/15.

For the sequence “NYNEQHYRY (listed as Human cytomegalovirus) [SEQ ID NO: 20]”, the “Positive donors as tested” value in experiment [3] is given as 5/13.

As for “QLRSVIRAL (listed as Human cytomegalovirus) [SEQ ID NO: 85]”, in experiment [3], the “% Positive donors (after 12 days of stimulation)” value came out at 14.3% and the “Positive donors as tested” value is listed as 2/14.

Consider “RENAGVALY (listed as Human cytomegalovirus) [SEQ ID NO: 45]”, for which, in experiment [3], the “% Positive donors (after 12 days of stimulation)” value came to 19.1% and the “Positive donors as tested” value is 4/21.

On to “REQAAIPQIY (listed as Human cytomegalovirus) [SEQ ID NO: 50]”, for which, in experiment [3], the “% Positive donors (after 12 days of stimulation)” value amounted to 6.3% and the “Positive donors as tested” value was 1/16.

Take “RLADVLIKR (listed as Human cytomegalovirus) [SEQ ID NO: 77]”: in experiment [3], the “% Positive donors (after 12 days of stimulation)” value is 15.4% and the “Positive donors as tested” value is given as 2/13.

For “RLFDLPVYC (listed as Human cytomegalovirus) [SEQ ID NO: 6]”, in experiment [3], the “% Positive donors (after 12 days of stimulation)” value was found to be 41.7% and the “Positive donors as tested” value is on record as 5/12.

Consider “RLQPNVPLV (listed as Human cytomegalovirus) [SEQ ID NO: 7]”, for which, in experiment [3], the “% Positive donors (after 12 days of stimulation)” value is given as 33.3% and the “Positive donors as tested” value is 6/18. The “% Positive donors (ex vivo)” value in experiment [4] was determined as 0.0%.

With “RPFPSTHQL (listed as Human cytomegalovirus) [SEQ ID NO: 31]”, in experiment [3], the “% Positive donors (after 12 days of stimulation)” value is given as 30.8% and the “Positive donors as tested” value is listed as 4/13. Further, the “% Positive donors (ex vivo)” value in experiment [4] stood at 0.0%.

For the sequence “RSALGPFVGK (listed as Human cytomegalovirus) [SEQ ID NO: 69]”, the Intracellular cytokine staining result in experiment [1] was “CD8”. In experiment [2], the Tetramer-staining result is “Positive”. In experiment [3], the “% Positive donors (after 12 days of stimulation)” value amounted to 40.0% and the “Positive donors as tested” value is given as 6/15.

As for “RSVRLPYMYK (listed as Human cytomegalovirus) [SEQ ID NO: 78]”, in experiment [3], the “% Positive donors (after 12 days of stimulation)” value is 13.3% and the “Positive donors as tested” value is listed as 2/15.

On to “RTFAGTLSR (listed as Human cytomegalovirus) [SEQ ID NO: 76]”, for which, in experiment [3], the “% Positive donors (after 12 days of stimulation)” value was 21.4% and the “Positive donors as tested” value is 3/14.

Take “RVDPNLRNR (listed as Human cytomegalovirus) [SEQ ID NO: 74]”: in experiment [3], the “% Positive donors (after 12 days of stimulation)” value stood at 33.3% and the “Positive donors as tested” value is 5/15.

As to “RVSQPSLIL (listed as Human cytomegalovirus) [SEQ ID NO: 32]”, in experiment [3], the “% Positive donors (after 12 days of stimulation)” value was found to be 26.7% and the “Positive donors as tested” value is given as 4/15.

For the sequence “RVYAYDTREK (listed as Human cytomegalovirus) [SEQ ID NO: 72]”, in experiment [3], the “% Positive donors (after 12 days of stimulation)” value turned out to be 36.4% and the “Positive donors as tested” value is listed as 4/11.

As for “SESLVAKRY (listed as Human cytomegalovirus) [SEQ ID NO: 48]”, in experiment [3], the “% Positive donors (after 12 days of stimulation)” value is 10.0% and the “Positive donors as tested” value is listed as 1/10.

Regarding “SFFPKLQGNY (listed as Human cytomegalovirus) [SEQ ID NO: 22]”, in experiment [3], the “% Positive donors (after 12 days of stimulation)” value is reported as 22.2% and the “Positive donors as tested” value was 2/9.

Turning to “SLDRFIVQY (listed as Human cytomegalovirus) [SEQ ID NO: 57]”, the Intracellular cytokine staining entry in experiment [1] is recorded as “CD4”. Besides, in experiment [3], the “% Positive donors (after 12 days of stimulation)” value came to 35.7% and the “Positive donors as tested” value was 5/14.

With “SLFYRAVAL (listed as Human cytomegalovirus) [SEQ ID NO: 98]”, the “Positive donors as tested” value in experiment [3] is 5/13 and 4/22. Besides, in experiment [3] (stimulated T cells of different donors harboring either of two well predicted alleles), the “Binding to more than one HLA-I allotype” value is listed as “potentially able to bind to more than one HLA-I allotype”. In addition, the “% Positive donors (ex vivo)” value in experiment [4] stood at 12.5%.

For “SLYEANPEL (listed as Human cytomegalovirus) [SEQ ID NO: 10]”, in experiment [3], the “% Positive donors (after 12 days of stimulation)” value was 23.5% and the “Positive donors as tested” value was 4/17.

Consider “SPHPPTSVFL (listed as Human cytomegalovirus) [SEQ ID NO: 33]”, for which, in experiment [3], the “% Positive donors (after 12 days of stimulation)” value was found to be 25.0% and the “Positive donors as tested” value is recorded as 3/12.

“SVRLPYMYK (listed as Human cytomegalovirus) [SEQ ID NO: 75]”: in experiment [3], the “% Positive donors (after 12 days of stimulation)” value is recorded as 25.0% and the “Positive donors as tested” value is 4/16.

Consider “SVSSAPLNK (listed as Human cytomegalovirus) [SEQ ID NO: 79]”, for which, in experiment [3], the “% Positive donors (after 12 days of stimulation)” value amounted to 7.1% and the “Positive donors as tested” value is given as 1/14.

Turning to “TILDKILNV (listed as Human cytomegalovirus) [SEQ ID NO: 11]”, in experiment [3], the “% Positive donors (after 12 days of stimulation)” value turned out to be 20.0% and the “Positive donors as tested” value was 4/20.

With “TLINGVWVV (listed as Human cytomegalovirus) [SEQ ID NO: 12]”, the “Positive donors as tested” value in experiment [3] was 2/11.

As to “TPLLKRLPL (listed as Human cytomegalovirus) [SEQ ID NO: 82]”, in experiment [3], the “% Positive donors (after 12 days of stimulation)” value is 28.6% and the “Positive donors as tested” value is 4/14.

Consider “TSETHFGNY (listed as Human cytomegalovirus) [SEQ ID NO: 59]”, for which, in experiment [3], the “% Positive donors (after 12 days of stimulation)” value was 20.0% and the “Positive donors as tested” value is on record as 3/15.

“VMKFKETSF (listed as Human cytomegalovirus) [SEQ ID NO: 81]”: in experiment [3], the “Positive donors as tested” value was 5/13.

For the sequence “VPAAVYTTV (listed as Human cytomegalovirus) [SEQ ID NO: 93]”, in experiment [3], the “% Positive donors (after 12 days of stimulation)” value amounted to 33.3% and the “Positive donors as tested” value was 5/15.

Consider “VTDPEHLMM (listed as Human cytomegalovirus) [SEQ ID NO: 64]”, for which, in experiment [3], the “% Positive donors (after 12 days of stimulation)” value stood at 14.3% and the “Positive donors as tested” value is recorded as 2/14.

As for “VTDYGNVAFKY (listed as Human cytomegalovirus) [SEQ ID NO: 61]”, in experiment [3], the “% Positive donors (after 12 days of stimulation)” value is reported as 18.8% and the “Positive donors as tested” value is reported as 3/16.

With “YSDRRDHVWSY (listed as Human cytomegalovirus) [SEQ ID NO: 66]”, in experiment [3], the “% Positive donors (after 12 days of stimulation)” value is 6.3% and the “Positive donors as tested” value is on record as 1/16.

Consider “YTSRGALYLY (listed as Human cytomegalovirus) [SEQ ID NO: 58]”, for which, in experiment [3], the “% Positive donors (after 12 days of stimulation)” value came out at 21.4% and the “Positive donors as tested” value is listed as 3/14.
